From US8557796B2, “Substituted 1-oxa-2,8-diaza-spiro [4,5] dec-2-ene derivatives and related treatment methods” (Gruenenthal GmbH, priority 2001, dated 2013)

system: batrachotoxin (BTX) binding site (binding site 2) of the sodium channel; assay: Bond test on the sodium channel, binding site 2 (BTX bond), [3H]-batrachotoxinin A20 α-benzoate displacement; conditions: rat cerebrocortex synaptosomes

Compound	BTX bond, 10 μM, % inhibition
CCc1ccc(C(=O)N2CCC3(CC2)CC(C(=O)NCc2cccs2)=NO3)cc1 [Example 52, 8-(4-ethyl-benzoyl)-1-oxa-2,8-diaza-spiro[4,5]dec-2-ene-3-carboxylic acid (thiophen-2-ylmethyl)-amide]	63%
C=CCOC(=O)C(CC(=O)OC(C)(C)C)NC(=O)C1=NOC2(CCN(S(=O)(=O)c3cc(Cl)ccc3Cl)CC2)C1 (stereo not drawn) [Example 53]	47%
CCOC(=O)N1CCC(NC(=O)C2=NOC3(CCN(C(=O)C4CC4c4ccccc4)CC3)C2)CC1 (stereo not drawn) [Example 55, 4-{[8-(2-phenyl-cyclopropanecarbonyl)-1-oxa-2,8-diaza-spiro[4,5]dec-2-ene-3-carbonyl]-amino}-piperidine-1-carboxylic acid ethyl ester]	47%
Cc1ccc(S(=O)(=O)N2CCC3(CC2)CC(C(=O)NCCN(C)C)=NO3)cc1 [Example 57, 8-(toluene-4-sulphonyl)-1-oxa-2,8-diaza-spiro[4,5]dec-2-ene-3-carboxylic acid (2-dimethylamino-ethyl)-amide]	45%
CN1CCCC1CCNC(=O)C1=NOC2(CCN(S(=O)(=O)c3ccc(Cl)s3)CC2)C1 (stereo not drawn) [Example 61, 8-(5-chloro-thiophene-2-sulphonyl)-1-oxa-2,8-diaza-spiro[4,5]dec-2-ene-3-carboxylic acid [2-(1-methyl-pyrrolidin-2-yl)-ethyl]-amide]	79%
CCOC(=O)N1CCC(NC(=O)C2=NOC3(CCN(C(=O)c4ccc(Br)cc4)CC3)C2)CC1 [Example 62, 4-{[8-(4-bromo-benzoyl)-1-oxa-2,8-diaza-spiro[4,5]dec-2-ene-3-carbonyl]-amino)-piperidine-l-carboxylic acid ethyl ester]	49%
Cc1ccc(S(=O)(=O)N2CCC3(CC2)CC(C(=O)NCc2cc(Cl)cc(Cl)c2)=NO3)cc1 [Example 63, 8-(toluene-4-sulphonyl)-1-oxa-2,8-diaza-spiro[4,5]dec-2-ene-3-carboxylic acid 3,5-dichlorobenzylamide]	38%
COc1cccc(CN2CCC(NC(=O)C3=NOC4(CCN(S(=O)(=O)c5cc(Cl)ccc5Cl)CC4)C3)C2)c1 (stereo not drawn) [Example 64]	91%
CN(C)S(=O)(=O)N1CCC2(CC1)CC(C(=O)N1CCN(Cc3ccc4ccccc4c3)CC1)=NO2 [Example 65, 3-(4-naphthalen-2-ylmethyl-piperazine-1-carbonyl)-1-oxa-2,8-diaza-spiro[4,5]dec-2-ene-8-sulphonic acid dimethylamide]	67%
O=C(C1=NOC2(CCN(S(=O)(=O)Cc3ccccc3)CC2)C1)N1CCN(CCCc2ccccc2)CC1 [Example 69]	50%
COc1cc(OC)cc(N2CCN(C(=O)C3=NOC4(CCN(S(=O)(=O)c5ccc(Cl)s5)CC4)C3)CC2)c1 [Example 71, [8-(5-chloro-thiophene-2-sulphonyl)-1-oxa-2,8-diaza-spiro[4,5]dec-2-en-3-yl]-[4-(3,5-dimethoxy-phenyl)-piperazin-l-yl]-methanone]	54%
CCCC(=O)N1CCC2(CC1)CC(C(=O)NC1CCN(C(=O)OCC)CC1)=NO2 [Example 74, 4-[(8-butyryl-1-oxa-2,8-diaza-spiro[4,5]dec-2-ene-3-carbonyl)-amino]-piperidine-l-carboxylic acid ethyl ester]	47%
O=C(NCC(c1ccccc1)c1ccccc1)C1=NOC2(CCN(S(=O)(=O)c3ccc(Cl)s3)CC2)C1 [Example 79, 8-(5-chloro-thiophene-2-sulphonyl)-1-oxa-2,8-diaza-spiro[4,5]dec-2-ene-3-carboxylic acid (2,2-diphenyl-ethyl)-amide]	83%
CN(C)S(=O)(=O)N1CCC2(CC1)CC(C(=O)N1CCN(CCCc3ccccc3)CC1)=NO2 [Example 80, 3-[4-(3-phenyl-propyl)-piperazine-1-carbonyl]-1-oxa-2,8-diaza-spiro[4,5]dec-2-ene-8-sulphonic acid dimethylamide]	44%
O=C(C1=NOC2(CCN(S(=O)(=O)c3cccc(C(F)(F)F)c3)CC2)C1)N1CCN(CCCc2ccccc2)CC1 [Example 83, [4-(3-phenyl-propyl)-piperazin-1-yl]-[8-(3-trifluoromethyl-benzenesulphonyl)-1-oxa-2,8-diaza-spiro[4,5]dec-2-en-3-yl]-methanone]	72%
CC(NC(=O)C1=NOC2(CCN(S(=O)(=O)c3cccs3)CC2)C1)c1cccc2c1OCCO2 (stereo not drawn) [Example 84, 8-(thiophene-2-sulphonyl)-1-oxa-2,8-diaza-spiro[4,5]dec-2-ene-3-carboxylic acid [1-(2,3-dihydro-benzo[1,4]dioxin-5-yl)-ethyl]-amide]	58%
CCCC(=O)N1CCC2(CC1)CC(C(=O)Nc1ccccc1)=NO2 [Example 85, 8-butyryl-1-oxa-2,8-diaza-spiro[4,5]dec-2-ene-3-carboxylic acid phenylamide]	62%
COCCOCC(=O)N1CCC2(CC1)CC(C(=O)NCc1ccccc1)=NO2 [Example 87, 8-[2-(2-methoxy-ethoxy)-acetyl]-1-oxa-2,8-diaza-spiro[4,5]dec-2-ene-3-carboxylic acid benzylamide]	42%
Cc1cc(C(=O)N2CCC3(CC2)CC(C(=O)NCC(C)C)=NO3)ccc1Br [Example 88, 8-(4-bromo-3-methyl-benzoyl)-1-oxa-2,8-diaza-spiro[4,5]dec-2-ene-3-carboxylic acid isobutyl-amide]	45%
CN(CCCNC(=O)C1=NOC2(CCN(S(=O)(=O)c3ccc(Cl)s3)CC2)C1)c1ccccc1 [Example 89]	81%
O=C(C1=NOC2(CCN(S(=O)(=O)c3ccc(Cl)s3)CC2)C1)N1CCN(c2ccc(F)cc2)CC1 [Example 91, [8-(5-chloro-thiophene-2-sulphonyl)-1-oxa-2,8-diaza-spiro[4,5]dec-2-en-3-yl]-[4-(4-fluorophenyl)-piperazin-1-yl]-methanone]	72%
CN(Cc1cccnc1)C(=O)C1=NOC2(CCN(S(=O)(=O)c3cc(Cl)ccc3Cl)CC2)C1 [Example 92, 8-(2,5-dichloro-benzenesulphonyl)-1-oxa-2,8-diaza-spiro[4,5]dec-2-ene-3-carboxylic acid methyl-pyridin-3-ylmethyl-amide]	65%

same assay, conditions: rat cerebrocortex synaptosomes, 10 µM

Compound	BTX bond, 10 μM, % inhibition
Cc1ccc(S(=O)(=O)N2CCC3(CC2)CC(C(=O)NC2CCCC2OCc2ccccc2)=NO3)cc1 (stereo not drawn) [Example 67, 8-(toluene-4-sulphonyl)-1-oxa-2,8-diaza-spiro[4,5]dec-2-ene-3-carboxylic acid (2-benzyloxy-cyclopentyl)-amide]	80%
Cc1ccc(S(=O)(=O)N2CCC3(CC2)CC(C(=O)NC2CCCC2OCc2ccccc2)=NO3)cc1 (stereo not drawn) [Example 73, 8-(toluene-4-sulphonyl)-1-oxa-2,8-diaza-spiro[4,5]dec-2-ene-3-carboxylic acid (2-benzyloxy-cyclopentyl)-amide]	75%
